How the values were obtained:
TPβ = target: T1, TPβ (Homo sapiens, UniProt P21731); test: U46619-induced [Ca2+]i mobilization in HEK.TPβ cells; format: cell-based; details: for Reduction of U46619-mediated calcium mobilization in HEK.TPβ cells: at 1 & 10 μM concentrations; for Calcium mobilization, Percentage of Control, TPβ / remaining activity at 1 µM: 1 μM U46619, HEK.TPβ, mean ± S.E.M.; for remaining activity at 1 µM: read-out: Calcium mobilization, Percentage of Control, TPβ; for inhibition at 0.5 µM: antagonist 0.5 μM, read-out: Inhibition of U46619-mediated responses in HEK.TPβ cells
T1 construct: expressed in transfected cells
Description: (§1) The appropriate functional test for the evaluation of the agonistic and/or antagonistic potency of the compounds of the invention is the determination of calcium flux. Both TPα and […] are coupled to the G-protein Gαq. Therefore, stimulation of these receptors ultimately leads to a release of intracellular calcium ([Ca^2+]i) from intracellular stores. Consequently, the determination of [Ca^2+]i flux represents an appropriate functional test for the evaluation of the agonistic/antagonistic potency of compounds of the invention. Calcium can be measured using a molecule characterized by the covalent combination of a Ca^2+ chelating group and a fluorophore group. The Ca^2+ binding properties of these indicators are formed by the presence of a tetracarboxylic acid core as found for example in EGTA (ethylene glycol bis(2-aminoethyl) tetraacetic acid). Binding of Ca^2+ produces a wavelength shift in either the excitation or emission fluorescence spectra or a change in the emission intensity. Whereas the Ca^2+ binding to EGTA is pH dependent, recent dyes are designed from an EGTA derivative, BAPTA (1, 2-Bis(2-Aminophenoxy)ethane-N, N, N′, N′-Tetraacetic Acid). Loading of these dyes inside cells commonly uses esterified forms (acetoxymethyl ester), which are able to cross the cell membranes and are subsequently hydrolyzed by esterases inside the cell.
(§2) Estimation of [Ca^2+]i flux is calculated from the fluorescence signal (F). For calibration, the maximal fluorescence (Fmax, Ca^2+-saturated form of the dye) as well as minimal fluorescence (Fmin, Ca^2+-free form of the dye) must be determined. These parameters are determined usually in situ after the experiment, for example by subsequent addition to the mixture of a cell-disrupting agent that releases all Ca^2+ such as Triton X100 and a potent Ca^2+-chelating agent such as EGTA. After subtraction of background fluorescence, [Ca^2+]i flux can be calculated for non-ratiometric indicators.
(§3) Intracellular [Ca^2+]i fluxes were measured using a fluorescence plate reader following a modified protocol of Kassack et al., Quantitative comparison of functional screening by measuring intracellular Ca^2+ with radioligand binding at recombinant human dopamine receptors. AAPS Pharmsci, 2002, 4(4); 102-111, in cell lines (e.g. HEK293 or other cell type) endogenously-expressing or over-expressing either TPα, TPβ or any other receptor or protein to be screened.
(§4) By way of example, HEK 293 cells which have been grown for 3-4 days in normal growth media (minimum essential media containing 10% FBS and 2 mmol/l L-glutamine), under normal growth conditions (37° C., in humidified 5% CO2 atmosphere) are washed and harvested in KREBs-HEPES buffer (118 mM NaCl, 4.7 mM KCl, 1.2 mM MgSO4, 1.2 mM KH2PO4, 4.2 mM NaHCO3, 11.7 mM D-glucose, 1.3 mM CaCl2, 10 mM HEPES, pH 7.4). Cells are then incubated with 3 µM Fluo-4 in KREBs-HEPES buffer containing 1% Pluoronic F-127, for 1 hr at 25° C. with agitation. Thereafter, cells are washed in KREBs-HEPES buffer containing 0.5% bovine serum albumin and resuspended at a final concentration of 3×10^5 cells/ml. Approximately, 5.4×10^4 cells per well are plated in a 96-well plate and pre-incubated with test compounds for 10 min prior to measuring the fluorescence intensity at 520 nm for 25 seconds at 1 second intervals to monitor baseline using the Fluoroskan Ascent. Agonist (e.g., 1 μM U46619) is injected into separate wells by the automatic pipettor and fluorescence intensity is monitored at 520 nm for 75 seconds at 1 second intervals. Thereafter, Triton X100 and EGTA are added sequentially where Fmax refers to maximal fluorescence intensity measured after permeabilization of the cells with 2% Triton X100 and Fmin refers to fluorescence intensity measured after addition of 1 mM EGTA.
(§5) The dye Fluo-4 has its excitation peak at 480 nm, in the visible spectra, which spare cells to be damaged by UV (340-360 nm) stimulation and reduces auto-fluorescence of cells. […]

TPα = target: T2, TPα (Homo sapiens, UniProt P21731); test: U46619-induced [Ca2+]i mobilization in HEK.TPα cells; format: cell-based; details: 1 μM U46619, mean ± S.E.M.
T2 construct: expressed in transfected cells
T2 sequence (P21731 1-343): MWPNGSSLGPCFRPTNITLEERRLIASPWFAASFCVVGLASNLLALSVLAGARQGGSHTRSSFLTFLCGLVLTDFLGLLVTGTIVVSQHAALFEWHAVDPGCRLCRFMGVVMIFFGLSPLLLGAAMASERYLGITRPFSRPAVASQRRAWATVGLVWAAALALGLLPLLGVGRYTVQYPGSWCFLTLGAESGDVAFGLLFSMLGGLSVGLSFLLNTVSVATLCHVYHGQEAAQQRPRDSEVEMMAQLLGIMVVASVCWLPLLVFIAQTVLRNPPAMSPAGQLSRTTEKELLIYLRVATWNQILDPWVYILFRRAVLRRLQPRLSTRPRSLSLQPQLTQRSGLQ
Description: as §1, §2, §3, §4, §5

platelets in whole blood = test: U46619-mediated platelet aggregation in whole blood (Sysmex haematological analyzer); format: cell-based, human; details: antagonist 0.1 μM, 1 μM U46619 for 3 min
Protocol: From an efficacy point of view, this is an important assay and, physiologically, relevant with respect to the therapeutic target.
Initially, the Sysmex haematological analyzer was used to examine the effect of the TP antagonists at a single concentration (0.1 μM) on U46619 (1 μM)-mediated platelet aggregation in whole blood.
FIG. 3 illustrates effects of the TP antagonist compounds on U46619-mediated platelet aggregation. Blood was taken form healthy volunteer by venupuncture into syringes containing 3.8% sodium citrate, 10 μM Indomethacin, such that the ratio of anticoagulant: blood was 1:9. The blood was aliquoted and incubated for 10 min with TP20 and selected NTP compounds, as indicated, where the antagonist were used at 0.1 μM prior to stimulation with 1 μM U46619 for 3 min. The blood was fixed with formaldehyde and platelet numbers counted using the Sysmex haematological analyzer. Data is presented as the mean percentage of control or non-treated blood sample (Percentage of Control; %) and represent data from 3 independent experiments were samples were treated in duplicate.

T1 sequence (P21731 1-407 isoform P21731-2): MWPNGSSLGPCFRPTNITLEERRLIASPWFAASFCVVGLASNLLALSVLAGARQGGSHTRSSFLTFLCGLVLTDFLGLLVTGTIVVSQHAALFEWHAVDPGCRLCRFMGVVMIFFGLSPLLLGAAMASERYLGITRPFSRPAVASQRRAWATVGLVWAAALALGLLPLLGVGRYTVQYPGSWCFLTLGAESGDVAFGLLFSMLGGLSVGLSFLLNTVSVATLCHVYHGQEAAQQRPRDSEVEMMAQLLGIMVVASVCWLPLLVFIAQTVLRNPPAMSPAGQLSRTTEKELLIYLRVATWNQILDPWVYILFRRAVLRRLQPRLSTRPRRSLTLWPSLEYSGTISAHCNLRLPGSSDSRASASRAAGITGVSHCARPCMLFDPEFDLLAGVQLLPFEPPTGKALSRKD

SMILES | Calcium mobilization, Percentage of Control, TPα (TPα; antagonist 1 μM) [%] | Calcium mobilization, Percentage of Control, TPα (TPα; antagonist 10 μM) [%] | Calcium mobilization, Percentage of Control, TPβ (TPβ; antagonist 1 μM) [%] | Calcium mobilization, Percentage of Control, TPβ (TPβ; antagonist 10 μM) [%] | further results
Cc1ccc(Nc2ccc([N+](=O)[O-])cc2S(=O)(=O)NC(=O)NC(C)(C)C)cc1 [BM573, reference compound] | – | – | – | – | Reduction of U46619-mediated calcium mobilization in HEK.TPβ cells (TPβ): potently inhibited
COc1ccc(-c2cccc(Oc3ccc(C(F)(F)F)cc3S(=O)(=O)NC(=O)NC(C)(C)C)c2)cc1 [NTP3, N-(tert-butylcarbamoyl)-2-((4′-methoxy-[1,1-biphenyl]-3-yl)oxy)-5-(trifluoromethyl) benzenesulfonamide] | 69.6 ± 5.92 | 41.6 ± 5.45 | 46.0 ± 5.92 | 14.8 ± 2.44 | –
COc1ccc(-c2cccc(Oc3ccc(F)cc3S(=O)(=O)NC(=O)NC(C)(C)C)c2)cc1 [NTP8, N-(tert-butylcarbamoyl)-5-fluoro-2-((4′-methoxy-[1,1′-biphenyl]-3-yl)oxy)benzene-sulfonamide] | – | – | – | – | remaining activity at 1 µM (TPβ; antagonist 1 μM): 5.94 ± 1.85%
COc1ccc(-c2cccc(Oc3ccc(C(=O)N4CC(O)C4)cc3S(=O)(=O)NC(=O)NC(C)(C)C)c2)cc1 [NTP23, N-(tert-butylcarbamoyl)-5-(3-hydroxyazetidine-1-carbonyl)-2-((4′-methoxy-[1,1′-biphenyl]-3-yl)oxy)benzenesulfonamide] | – | – | – | – | remaining activity at 1 µM (TPβ; antagonist 1 μM): 4.84 ± 2.75%
COc1ccc(-c2cccc(Oc3ccc(S(C)(=O)=O)cc3S(=O)(=O)NC(=O)NC(C)(C)C)c2)cc1 [NTP27, N-(tert-butylcarbamoyl)-2-((4′-methoxy-[1,1′-biphenyl]-3-yl)oxy)-5-(methylsulfonyl) benzenesulfonamide] | 81.1 ± 10.2 | 68.4 ± 4.56 | 36.4 ± 3.80 | 16.3 ± 2.39 | –
COc1ccc(-c2cccc(Oc3ccc(Cl)cc3S(=O)(=O)NC(=O)NC(C)(C)C)c2)cc1 [NTP30, N-(tert-butylcarbamoyl)-5-chloro-2-((4′-methoxy-[1,1′-biphenyl]-3-yl)oxy) benzenesulfonamide] | 52.2 ± 3.90 | 23.3 ± 3.63 | 46.5 ± 5.86 | 9.31 ± 1.57 | –
COc1ccc(-c2cccc(Oc3cc(C)c(C#N)cc3S(=O)(=O)NC(=O)NC(C)(C)C)c2)cc1 [NTP32, N-(tert-butylcarbamoyl)-5-cyano-2-((4′-methoxy-[1,1′-biphenyl]-3-yl)oxy)-4-methyl benzenesulfonamide] | 80.3 ± 4.21 | 69.3 ± 2.07 | 93.6 ± 4.06 | 46.2 ± 4.83 | –
COc1ccc(-c2cccc(Oc3ccc([N+](=O)[O-])cc3S(=O)(=O)NC(=O)NC(C)(C)C)c2)cc1 [TP20, N-(tert-butylcarbamoyl)-2-((4′-methoxy-[1,1′-biphenyl]-3-yl)oxy)-5-nitrobenzene-sulfonamide] | – | – | – | – | inhibition at 0.5 µM (TPβ): > 50%; Reduction of U46619-mediated calcium mobilization in HEK.TPβ cells (TPβ): approx. 90%; Inhibition of the U46619-mediated reduction in platelet number (platelets in whole blood): almost completely inhibited
CC(C)(C)NC(=O)NS(=O)(=O)c1cc([N+](=O)[O-])ccc1Oc1cccc(-c2ccc(C(F)(F)F)cc2)c1 [XII] | – | – | – | – | inhibition at 0.5 µM (TPβ): > 50%
